Series [1] deals with gln3Δ strain. The format is cell-based, S. cerevisiae. The settings on record: for tolerance compared to wild type strain: liquid medium. An excerpt:
(§1) The six hypertolerant strains were examined in liquid medium containing heavy alcohols. In this example, the liquid medium contained 1.5% or 1.6% isobutanol, or 8% ethanol.
Tolerance of the gln3Δ strain to other alcohols was explored by measuring its growth in liquid medium containing methanol, 1-propanol, 1-butanol, 2-butanol, tert-butanol, 1-pentanol, 2-methyl-1-butanol, isopentanol, or 1-hexanol.

Series [2] deals with zwf1Δ strain. The series is classed as cell-based, S. cerevisiae. The settings on record: for sensitivity / cell growth in presence of alcohol compared to wild type: FIG. 5, various alcohols. The procedure:
(§2) Growth of 19 hypersensitive strains was measured in liquid SC medium containing 0.6%, 1.0%, or 1.4% isobutanol, or 8% ethanol. These growth experiments were initiated at an OD600 of 0.1, unlike in previous screens, which started with much smaller inoculums (from a 96-pin replicator).
(§3) The sensitivity of gnd1Δ and zwf1Δ strains to other alcohols including methanol, 1-propanol, 1-butanol, 2-butanol, tert-butanol, 1-pentanol, 2-methyl-1-butanol, isopentanol, and 1-hexanol was explored.

Series [3] relates to gnd1Δ strain. The format is cell-based, S. cerevisiae. The settings on record: for sensitivity / cell growth in presence of alcohol compared to wild type: FIG. 5, various alcohols. The method, then:
as §2, §3

The test system of series [4] is BY4741 wild type strain. To be noted: for cell growth (OD600): 24 h. The method, then:
The Tolerance Factor (TF) is defined as the ratio of the OD600 of cells grown with the heavy alcohol in the medium after 24 h, divided by the OD600 of cells grown in the absence of the heavy alcohol for the same amount of time.
A first example is for the identification of the LC50 (lethal concentration for 50% of cells) of isobutanol for the BY4741 wild type strain of S. cerevisiae, the strain from which a gene deletion library was developed (Giaever et al., 2002; Winzeler et al., 1999). […] The cell growth of BY4741 in synthetic complete (SC) liquid medium containing concentrations of isobutanol ranging from 0.0% to 1.8% (v/v) was monitored by measuring the optical density at 600 nm (OD600) after 24-h cultivation.
(§4) Utilizing the LC50 results, one can screen a gene deletion library (here, the BY4741 library [Giaever et al., 2002; Winzeler et al., 1999]) for changes in cell growth in liquid SC medium containing the heavy alcohol at an amount that is 0.1% or 0.2% (v/v) less than the LC50. Here, 1.4% (v/v) isobutanol was used. […] To quantify these phenotypes, a tolerance factor (TF) was defined as the ratio of the OD600 of cells grown with isobutanol in the medium after 24 h, divided by the OD600 of cells grown in the absence of isobutanol for the same amount of time. Thus, one can classify deletion strains as having increased sensitivity or tolerance to isobutanol based on the comparison of their TF values to that of the wild type strain in, e.g., 1.4% isobutanol measured during the screen. […] To assess the specificity of changes in tolerance to isobutanol, the growth of these selected strains in media containing ethanol can also be measured: 8% for sensitive strains or 9% for tolerant strains.
For most screens and analyses of alcohol tolerance, wild type and deletion strains can be cultured in synthetic complete (SC) medium made inhouse (see Table 1) at 30° C., and 2% glucose. Strains overexpressing PPP genes can be cultured in SC medium lacking uracil (SC-Ura) made inhouse.

The subject of series [5] is yeast. To be noted: cited from earlier work.
Series [6] has as its system ydr391cΔ strain. The format is cell-based, S. cerevisiae. To be noted: FIG. 6.
Description: as §1

The subject of series [7] is vps55Δ strain. The series is classed as cell-based, S. cerevisiae. The settings on record: FIG. 6.
Description: as §1

In series [8] the test system is gnp1Δ strain. The series is classed as cell-based, S. cerevisiae. The settings on record: FIG. 6.
Description: as §1

In series [9] the test system is avt3Δ strain. The format is cell-based, S. cerevisiae. The settings on record: FIG. 6.
Description: as §1

Series [10] deals with nha1Δ strain. To be noted: 8% ethanol. The method, then: as §2, §3
Series [11] relates to gcn3Δ strain. The format is cell-based, S. cerevisiae. The procedure:
as §4, §1

The test system of series [12] is pep12Δ strain. The series is described as follows: Growth of hypersensitive strains in liquid SC medium. The format is cell-based, S. cerevisiae. To be noted: 0.6% isobutanol, initial OD600 0.1.
Series [13] relates to gcn4Δ strain. The series is described as follows: Gene deletion library screen, tolerance factor in liquid SC medium. The format is cell-based, S. cerevisiae. To be noted: 1.4% isobutanol. An excerpt: (§5) Here, 1.4% (v/v) isobutanol was used.
The test system of series [14] is vps34Δ strain. The series is described as follows: Growth of hypersensitive strains in liquid SC medium. The format is cell-based, S. cerevisiae. To be noted: 0.6% isobutanol, initial OD600 0.1.
Series [15] has as its system trp5Δ strain. The series is described as follows: Gene deletion library screen for isobutanol sensitivity. The series is classed as cell-based, S. cerevisiae. The settings on record: second screen, 0.6% and 1.2% isobutanol.
Description: as §5
(§6) Out of the 164 sensitive strains, the 46 strains that continue to display increased sensitivity to isobutanol at lower concentrations (TF <0.5 in 0.6% isobutanol or TF <0.1 in 1.2% isobutanol) can be categorized as hypersensitive. These strains are highlighted in gray in FIGS. 2A-2C. Among the 36 strains with increased tolerance, 6 continue to display increased tolerance (TF >0.4) in 1.5% isobutanol, which we categorize as hypertolerant (FIG. 3).
(§7) Next, a Gene Ontology (GO) enrichment analysis of genes deleted in the 164 most sensitive and 36 most tolerant strains can be performed. […] In fact, five strains harboring deletions in the TRP gene family, encoding enzymes in tryptophan biosynthesis, show increased isobutanol sensitivity (with trp2Δ, trp3Δ, and trp5Δ being hypersensitive strains). One can examine the increased sensitivity to isobutanol caused by TRP1 deletion because it is an auxotrophic marker in commonly used strains, such as CEN.PK- and SEY6210-derived strains. […] Furthermore, after repairing the TRP1 allele in CEN.PK2-1C and SEY6210, wild-type (BY4741) levels of isobutanol tolerance are recovered.

For series [16], the system named is trp3Δ strain. Described as above. To be noted: second screen, 0.6% and 1.2% isobutanol. The series is classed as cell-based, S. cerevisiae.
Description: as §5, §6, §7

The test system of series [17] is trp2Δ strain. Described as above. The series is classed as cell-based, S. cerevisiae. The settings on record: second screen, 0.6% and 1.2% isobutanol.
Description: as §5, §6, §7

The subject of series [18] is gln3Δ strain. Briefly: Growth on SC agar medium. The format is cell-based, S. cerevisiae. The settings on record: 2.7% isobutanol. The source says:
The gln3Δ strain can grow on SC agar medium containing 2.7% isobutanol.

For series [19], the system named is BY4741. The series is described as follows: Serial dilutions spotted onto SC agar plates. The series is classed as cell-based, S. cerevisiae. To be noted: SC agar containing 2.4% isobutanol. The source says:
To evaluate isobutanol growth inhibition on solid medium, serial dilutions of BY4741 were spotted onto SC agar plates containing 0.0% to 3.0% isobutanol. […] The higher LC50 determined from agar plates may be the result of higher cell tolerance to isobutanol in solid media; however, it could also reflect the difficulty in accurately preparing solid media with specific isobutanol concentrations due to isobutanol evaporation during the pouring of hot agar.

Setting [20] is: 0.6% isobutanol, initial OD600 0.1.

Where two headings read alike, the source gives them in different places.

Take `CCC(C)CO` (stereo not shown) [2-methyl-1-butanol]: the “OD600 relative to wild type strain” value in series [1] (0.55% 2-methyl-1-butanol, FIG. 7) came out at 11.4 fold. Further, in [1] (FIG. 7), the “tolerance compared to wild type strain” value is “dramatically enhanced tolerance”.
On to `CCO` [Ethanol, ethanol], for which the “sensitivity compared to wild type strain” value in series [2] (8% ethanol) is reported as “no more sensitive”; in series [3] (8% ethanol), “no more sensitive”; in series [6] (8% ethanol) it was “at least as sensitive”; in series [7] (8% ethanol) it was “at least as sensitive”; in series [8] (8% ethanol), “at least as sensitive”; in series [9] (8% ethanol), “at least as sensitive”. The “sensitivity compared to wild type strain” value in [1] (8% ethanol, FIG. 6) is given as “at least as sensitive”; in series [10] it was “no more sensitive”; in series [11] (8% ethanol, FIG. 6), “at least as sensitive”. Besides, the “sensitivity / cell growth in presence of alcohol compared to wild type” value in [2] and in [3] was “neither strain demonstrates significantly increased sensitivity” throughout. The “Tolerance Factor” value in series [4] (8.0% ethanol) was 0.31. In series [5] (S. cerevisiae), the ethanol concentration endured is reported as ≤ 18 % (v/v). Also, in [1] (FIG. 7), the “tolerance compared to wild type strain” value was “does not statistically increase tolerance”.
With `CCCCO` [Example 1-butanol, 1-butanol], the “tolerance compared to wild type strain” value in [1] (FIG. 7) is reported as “does not statistically increase tolerance”.
Same read-out and setting: the entry for `CCCCCCO` [Example 1-hexanol, 1-hexanol] is “does not statistically increase tolerance”; for `CCCCCO` [Example 1-pentanol, 1-pentanol] it is “does not statistically increase tolerance”.
In the case of `CCCO` [Example 1-propanol, 1-propanol], the “sensitivity / cell growth in presence of alcohol compared to wild type” value in [2] and in [3] was “neither strain demonstrates significantly increased sensitivity” in each case. In series [1] (FIG. 7), the “tolerance compared to wild type strain” value is on record as “does not statistically increase tolerance”.
As for `CCC(C)O` (stereo not shown) [Example 2-butanol, 2-butanol], the “tolerance compared to wild type strain” value in [1] (FIG. 7) was “smaller, but statistically significant, increase in tolerance”.
As to `CC(C)CO` [Isobutanol, 2-methyl-1-propanol], the “Tolerance Factor” value is “less than 0.3” in [2] (setting [20]); “less than 0.3” in [3] (setting [20]); “less than 0.3” in series [12]; 0.86 in [13]; 0.92 in [4] (0.6% isobutanol); 0.72 in [4] (1.2% isobutanol). Also, the “Tolerance Factor” value in [4] (1.4% isobutanol) was 0.38; in [4] (1.5% isobutanol) it was 0.19; in [4] (1.6% isobutanol), 0.11; in [14], “less than 0.3”; in series [11] (1.4% isobutanol), 0.98. Also, in series [4] (SC liquid medium, OD600 after 24-h cultivation), the “LC50 (lethal concentration for 50% of cells)” value is on record as ~1.5 % (v/v). Further, the “cell growth (OD600)” value is on record as “moderate inhibition” in series [4] (isobutanol 1.4% and 1.5%); “significantly inhibited” in [4] (isobutanol concentrations above 1.6%); “marginally affected” in [4] (isobutanol concentrations below 1.3%). Moreover, the “toxicity for yeast relative to ethanol” value in series [5] was 10 times. Also, the “growth compared to wild type” value in series [6] (1.5% isobutanol) is recorded as “grow better than the wild type”; in [7] (1.5% isobutanol), “grow better than the wild type”; in series [8] (1.5% isobutanol) it was “grow better than the wild type”; in [9] (1.5% isobutanol), “grow better than the wild type”; in series [1] (1.5% isobutanol, FIG. 6), “grow better than the wild type”; in series [11] (1.5% isobutanol, FIG. 6), “grow better than the wild type”. In addition, the “tolerance compared to wild type” value was “enhanced tolerance” in series [7] (1.6% isobutanol); “enhanced tolerance” in series [8] (1.6% isobutanol); “enhanced tolerance” in series [1] (1.6% isobutanol, FIG. 6); “enhanced tolerance” in series [11] (1.6% isobutanol, FIG. 6). Also, the “increase in isobutanol tolerance compared to wild type” value in series [1] (FIG. 7) amounted to 4.04 fold. Besides, in series [1] (FIG. 7), the “tolerance compared to wild type strain” value is “dramatically enhanced tolerance”. In addition, the isobutanol sensitivity class result in series [15], in series [16] and in [17] was “hypersensitive (TF <0.5 in 0.6% isobutanol or TF <0.1 in 1.2% isobutanol)” throughout. The “growth on SC agar medium” value in [18] is given as “can grow”. In addition, the “cell growth on agar plates” value in [19] is “still observable but noticeably inhibited”.
`CC(C)CCO` [isopentanol, 3-methyl-1-butanol]: the “tolerance compared to wild type strain” value in [1] (FIG. 7) is listed as “dramatically enhanced tolerance”.
`CO` [methanol]: the “sensitivity / cell growth in presence of alcohol compared to wild type” value in series [2] and in [3] was “neither strain demonstrates significantly increased sensitivity” each time. In addition, in series [1] (FIG. 7), the “tolerance compared to wild type strain” value was “does not statistically increase tolerance”.
Turning to `CC(C)(C)O` [tert-butanol], the “tolerance compared to wild type strain” value in series [1] (FIG. 7) was “dramatically enhanced tolerance”.

The values above are taken from patent publication US20220348966A1, “SYSTEM AND METHOD FOR INCREASED ALCOHOL TOLERANCE AND PRODUCTION IN YEAST” (The Trustees of Princeton University, priority 2019, published 2022).
